Assay results: PMC8980233, “Differentiating the Neuropharmacological Properties of Nicotinic Acetylcholine Receptor-Activating Alkaloids” (Frontiers in Pharmacology, 2022)
Counter-ions that a name gives are not always drawn.

Key:
[1] = test system: dopamine release from striatal synaptosomes; assay: In vitro [3H]dopamine release from crude striatal synaptosomes; format: biochemical, rat; conditions: for EC50: striatal synaptosomes
Method: In brief, male Sprague Dawley rats (200–225 g) were terminated by cervical dislocation followed by decapitation. The striatums or hippocampi were dissected and homogenized in ice-cold 0.32 M sucrose using a Dounce homogenizer. The homogenates were centrifuged at 100 x g for 5 min to pellet cell debris. The supernatants were collected and centrifuged at 17,000 x g for 10 min at 4°C to pellet crude synaptosomes.
The [^3H]norepinephrine- or [^3H]dopamine-treated crude synaptosomes were loaded onto closed filter chambers containing Whatman® Grade GF/C Glass Microfiber filters (Sigma-Aldrich, Merck KGaA, Darmstadt, Germany) and placed in a superfusion system. […] To ensure an even flow over the synaptosomal bed, trapped air bubbles were removed from the filters prior to collection of the fractions. After a superfusion period of 40 min, three basal fractions (1.5 ml/fraction) were collected first, followed by three fractions (1.5 ml/fraction) containing the test compound. Two additional fractions were collected in the presence of 30 mM KCl to depolarize the synaptosomes. […] Once all fractions were collected, the filters holding the crude synaptosome samples were removed and dried overnight at room temperature. On the following day, the scintillation cocktail was added and the filters were counted to determine residual radioactivity.
(§1) Compound-evoked release of neurotransmitters was calculated by subtracting the counts per minute (CPM) in the two basal fractions collected immediately prior to compound addition from those in the two fractions collected immediately following compound addition. The compound-evoked release was then expressed as a percentage of the basal release from that chamber. Potassium-evoked release was calculated by subtracting the CPM in the fraction immediately prior to KCl addition from the CPM in the […] immediately following potassium addition. Stimulated release was calculated as the percentage of basal release for that chamber. The increase in stimulated release above the baseline (no compound) release for that experimental run was determined, and the latter values were plotted on the graphs. Dose–response curves were determined using non-linear curve fitting in Prism (GraphPad Software, Inc, San Diego, CA, United States). All experiments were repeated at least three times.

C57Bl/6 mice = assay: Tolerability test (body weight, body temperature, passive signs, manipulation responses); conditions: for BT (°C) naïve / Manipulations naïve / Passive naïve: baseline; for BW Day 1 / BW Day 2: mean ± SD; for tolerability: highest dose 10 mg/kg i.p.
Method: In brief, mice were single-housed prior to the test and evaluated for baseline body weight, body temperature, and other parameters. […] On day 1, the mice were i. p. injected with saline (vehicle) or a test compound at 10 ml/kg body weight. Then, body temperature was measured at 15 min, 4 h, and 24 h and body weight on days 1 and 2. Neurological and motor parameters were evaluated at 15 min, 2 h, and 4 h after administration. The list of parameters is provided in Supplementary Figure S1 in Supplementary Material S1.
In addition, within 5 min after the 15-min observation period, mice were placed in open-field chambers for 30 min to determine their general motor activity (distance traveled), ambulatory time, and number of rears. The open-field chambers were made of Plexiglas (27.3 × 27.3 × 20.3 cm; Med Associates Inc, St Albans, VT, United States) surrounded by infrared photobeam sources (16 × 16 × 16 beams). Horizontal activity (distance and time traveled) and vertical activity (number and frequency of rears) were measured by consecutive beam breaks. At the end of each open-field test session, the chambers were thoroughly cleaned with NOLVASAN® solution (Zoetis Services LLC, Parsippany, NJ, United States). Four mice were used per treatment condition. Mice were terminated after completion of the last tolerability observation.
All compounds were diluted in saline, and the pH was adjusted to approximately 7.0 with HCl or NaOH on the day of the experiment. […] The doses were calculated based on the free base molecular weight of the compounds.
For the tolerability tests, passive signs and manipulation responses were analyzed for effects of the treatment by the Kruskal–Wallis test. Body temperature and body weight data were analyzed by two-way repeated measures analysis of variance (ANOVA). The total distance and time traveled and number and frequency of rears in the open-field activity test were analyzed by one-way ANOVA, followed by the Tukey post-hoc test. For the analyses of the zebrafish NTT data, one-way ANOVA was used, followed by Dunnett’s multiple comparison test, if it passed the Shapiro-Wilk normality test. […] An effect was considered significant if p < 0.05. The half maximal effective concentration (EC50) and half-maximal inhibitory concentration (IC50) for the receptor pharmacology and neurotransmitter release assay were determined by using nonlinear regression analysis. Statistical analyses were conducted using GraphPad Prism.

[2] = test system: norepinephrine release from hippocampal synaptosomes; assay: In vitro [3H]norepinephrine release from crude hippocampal synaptosomes; format: biochemical, rat
Method: In vitro neurotransmitter assays using crude synaptosome preparations were conducted by Gifford Biosciences Limited (Birmingham, UK) based on the previously described protocols ([Clarke and Reuben, 1996]; [Gifford et al., 2000]). In brief, male Sprague Dawley rats (200–225 g) were terminated by cervical dislocation followed by decapitation. The striatums or hippocampi were dissected and homogenized in ice-cold 0.32 M sucrose using a Dounce homogenizer. The homogenates were centrifuged at 100 x g for 5 min to pellet cell debris. The supernatants were collected and centrifuged at 17,000 x g for 10 min at 4°C to pellet crude synaptosomes. The pellets were resuspended in 5 ml Krebs buffer, pH 7.4 (in mM (pH 7.4): 120 NaCl, 3.3 KCl, 1.2 MgSO4, 1.3 CaCl2, 1.2 K2HPO4, 25 HEPES, 11 glucose, 0.01 ascorbic acid, 0.025 pargyline, and 0.1% BSA containing 2 μCi/ml [^3H]norepinephrine for hippocampal synaptosomes or 1 μCi/ml [^3H]dopamine for striatal synaptosomes and incubated for 15 min at 35°C with gentle shaking.
The [^3H]norepinephrine- or [^3H]dopamine-treated crude synaptosomes were loaded onto closed filter chambers containing Whatman® Grade GF/C Glass Microfiber filters (Sigma-Aldrich, Merck KGaA, Darmstadt, Germany) and placed in a superfusion system. Preoxygenated Krebs buffer was perfused through the chambers at a rate of 1 ml/min at 37 °C using an 8-channel peristaltic pump. To ensure an even flow over the synaptosomal bed, trapped air bubbles were removed from the filters prior to collection of the fractions. After a superfusion period of 40 min, three basal fractions (1.5 ml/fraction) were collected first, followed by three fractions (1.5 ml/fraction) containing the test compound. Two additional fractions were collected in the presence of 30 mM KCl to depolarize the synaptosomes. A 0.4-ml aliquot of each fraction was then transferred to a counting plate, and a scintillation cocktail was added to measure the radioactivity using a Wallac® TriLux 1450 MicroBeta counter (PerkinElmer Life Sciences, Zaventem, Belgium). Once all fractions were collected, the filters holding the crude synaptosome samples were removed and dried overnight at room temperature. On the following day, the scintillation cocktail was added and the filters were counted to determine residual radioactivity.
as §1

[3] = test system: zebrafish (Danio rerio; strain AB); assay: Zebrafish novel tank test (NTT)
Method: Adult male and female wild-type zebrafish were treated with the compounds for 20 min in a final volume of 50 ml in a 250-ml treatment beaker one fish at a time. The fish were briefly rinsed in fresh system water, and then immediately transferred to a trapezoidal tank (14.6 cm height x 5.5 cm width x 27.9 cm top length and x 23.6 cm bottom length) filled with 1.5 L system water. The behavior of the fish was monitored for the next 5 min by using the Noldus EthoVision XT system (Wageningen, Netherlands), with the camera placed approximately 1 m from the test tank. The part of the tank filled with water (11.5 cm height) was virtually divided into top, center, and bottom of equal heights (approximately 3.8 cm per segment) for the analysis. The average time spent at the top and bottom portions of the tank was analyzed to determine the anxiety-like behavior of fish. The average total distance travelled and freezing time were calculated to determine the effects of the compounds on the general behavior of fish. Freezing was defined by a complete cessation of movement except for gills and eyes ([Kalueff et al., 2013]). A minimum of 12 fish (6 females and 6 males) per condition were used for the study. The experimenter was blind to the test conditions.
If not, the dose was reduced until no obvious signs of tolerability problems were observed. […] The concentrations were calculated based on the free base molecular weight. Buspirone—a clinical anxiolytic drug used acutely and chronically to investigate the change in the anxiety-like behavior ([Maximino, et al., 2011]; [Maximino, et al., 2013])—was included as a positive control.

## O=C(N[C@H]1CN2CCC1CC2)c1ccc(Cl)cc1 [PNU282987]
[1]; at higher concentrations
  dopamine release: 20–30%
C57Bl/6 mice; 1 mg/kg group
  BT (°C) naïve: 36.48 ± 0.38 °C
  Manipulations naïve: 2.00 ± 1.63
  Passive naïve: 0.25 ± 0.50
C57Bl/6 mice; 1 mg/kg i.p.
  BT (°C) 15min: 38.13 ± 0.15 °C
  BT (°C) 4hr: 36.60 ± 0.18 °C
  BT (°C) 24hr: 36.85 ± 0.66 °C
  Manipulations 15min: 1.25 ± 1.26
  Manipulations 2hr: 0.75 ± 0.50
  Manipulations 4hr: 0.75 ± 0.96
  Passive 15min: 0.50 ± 0.58
  Passive 2hr: 0.00 ± 0.00
  Passive 4hr: 0.00 ± 0.00
  BW Day 1: 24.03 ± 2.46
  BW Day 2: 23.78 ± 2.61
C57Bl/6 mice; 3 mg/kg group
  BT (°C) naïve: 36.50 ± 0.24 °C
  Manipulations naïve: 0.75 ± 0.96
  Passive naïve: 0.25 ± 0.50
C57Bl/6 mice; 3 mg/kg i.p.
  BT (°C) 15min: 37.85 ± 0.54 °C
  BT (°C) 4hr: 36.63 ± 0.21 °C
  BT (°C) 24hr: 36.40 ± 0.12 °C
  Manipulations 15min: 0.75 ± 0.96
  Manipulations 2hr: 0.50 ± 0.58
  Manipulations 4hr: 0.25 ± 0.50
  Passive 15min: 0.50 ± 0.58
  Passive 2hr: 0.00 ± 0.00
  Passive 4hr: 0.00 ± 0.00
  BW Day 1: 23.38 ± 0.54
  BW Day 2: 23.47 ± 0.57
C57Bl/6 mice; 10 mg/kg group
  BT (°C) naïve: 36.73 ± 1.13 °C
  Manipulations naïve: 1.25 ± 0.96
  Passive naïve: 0.25 ± 0.50
C57Bl/6 mice; 10 mg/kg i.p.
  BT (°C) 15min: 37.73 ± 0.46 °C
  BT (°C) 4hr: 36.83 ± 0.59 °C
  BT (°C) 24hr: 36.10 ± 0.52 °C
  Manipulations 15min: 0.50 ± 0.58
  Manipulations 2hr: 0.25 ± 0.50
  Manipulations 4hr: 0.50 ± 0.58
  Passive 15min: 0.00 ± 0.00
  Passive 2hr: 0.00 ± 0.00
  Passive 4hr: 0.00 ± 0.00
  BW Day 1: 23.62 ± 1.10
  BW Day 2: 22.94 ± 1.25
C57Bl/6 mice
  tolerability: well tolerated
[2]
  change in norepinephrine release: negligible change

## CC(=O)OCC[N+](C)(C)C [acetylcholine]
[1]
  EC50: 0.27 µM
[2]; hippocampal synaptosomes
  EC50: 13.5 µM

## O=C(c1ccc(Cl)o1)N1CC2CNCC2C1 (stereo not drawn) [AZD1446, 3-(5-chloro-2-furoyl)-3,7-diazabicyclo[3.3.0]octane]
[1]
  EC50: 8.4 µM
C57Bl/6 mice
  tolerability: well tolerated
[2]
  change in norepinephrine release: negligible change

## O=C1CC2(CCCC2)CC(=O)N1CCCCN1CCN(c2ncccn2)CC1 [buspirone, buspirone hydrochloride]
[3]; 100 mg/L
  freezing time: increased
  total distance traveled: decreased
[3]; all three doses tested (10, 30, and 100 mg/L)
  time spent at the top: increased the time spent at the top
[3]; middle two doses (10 and 30 mg/L)
  time spent at the bottom: reduced the time spent at the bottom
